Experimental findings from patent publication US20250179094A1, “TGF-B INHIBITOR COMPOUND AND USE THEREOF” (Medinno Pharmaceutical Technology (Zhuhai) Co., Ltd., priority 2022, published 2025) are described below.

The experiment deals with human TGFβR1 (Homo sapiens (Human), UniProt P36897). The experiment can be described thus: TGFβR1 kinase activity assay (ADP-Glo method). The following applies: ATP 5 uM, TGFβR1tide substrate, 60 minutes at room temperature. It counts as biochemical. The protocol: The principle of the activity assay was that TGFβR1 phosphorylates the substrate TGFβR1tide, consuming ATP in the process. […] The specific experimental steps were as follows. Compounds were diluted 4-fold in DMSO in a dilution plate, with the final starting concentration of the compounds being 10 μM, across 10 concentration gradient points. The compounds were then further diluted 50-fold into the kinase reaction buffer and incubated on a shaker for 20 minutes. Kinase was formulated with an enzyme reaction buffer. 2 μl kinase was added to each well of the reaction plate. 1 μl of the compound diluted in buffer was added to each well, and then the plate was sealed with a sealing membrane and centrifuged at 1000 g for 30 seconds, leaving it at room temperature for 10 minutes. Solutions of TGFβR1tide and ATP were prepared with the kinase reaction buffer, and 2 μL of the TGFβR1tide/ATP solution was added to the reaction plate. The plate was sealed with a sealing film and centrifuged at 1000 g for 30 seconds. It was allowed to react at room temperature for 60 minutes. Subsequently, 4 μL of ADP-Glo was transferred to a 384-well reaction plate and centrifuged at 1000 rpm/min for 1 minute, followed by incubation at 25° C. for 40 minutes. Then, 8 μL of Detection solution was transferred to the 384-well reaction plate and centrifuged at 1000 rpm/min for 1 minute, after which it was incubated at 25° C. for 40 minutes. The RLU (Relative Luminescence Unit) signal was read using a BMG microplate reader, which was used to characterize the degree of kinase activity.
Sequence of human TGFβR1 (P36897 34-503): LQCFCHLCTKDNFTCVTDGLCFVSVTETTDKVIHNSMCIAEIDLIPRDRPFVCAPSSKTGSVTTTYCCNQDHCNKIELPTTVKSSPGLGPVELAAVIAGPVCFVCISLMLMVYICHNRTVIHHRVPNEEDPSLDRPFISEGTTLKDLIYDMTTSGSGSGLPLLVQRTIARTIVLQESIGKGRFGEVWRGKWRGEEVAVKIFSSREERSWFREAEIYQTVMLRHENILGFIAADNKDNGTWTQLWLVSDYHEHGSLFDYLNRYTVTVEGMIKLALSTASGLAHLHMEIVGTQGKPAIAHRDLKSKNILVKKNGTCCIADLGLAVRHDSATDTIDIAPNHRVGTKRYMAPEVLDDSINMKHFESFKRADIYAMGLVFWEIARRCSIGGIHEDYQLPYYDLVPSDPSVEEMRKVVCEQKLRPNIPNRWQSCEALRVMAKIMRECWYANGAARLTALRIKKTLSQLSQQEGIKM
3.1 The inhibition rate was calculated as follows: inhibition rate of compound (% inh)=100%−(compound−positive control)/(negative control−positive control)*100%.
The IC50 (half inhibition concentration) of a compound was obtained using the following non-linear fitting equation, wherein data analysis was performed using Graphpad 7.0 software.
X: log value of compound concentration; and Y: inhibition rate (% inhibition)
A general note: ADP-Glo first removes unused ATP, then detects ADP through luciferase.
The IC50 is the concentration at which inhibition is half-maximal. A lower IC50 goes with higher potency. Take `CCN(C)C(=O)N1Cc2nc(-c3cc(-c4c(-c5cccc(C)n5)nn5c4CCC5)ccn3)[nH]c2C1` [Compound 74, N-Ethyl-N-methyl-2-(4-(2-(6-methylpyridin-2-yl)-5,6-dihydro-4H-pyrrolo[1,2-b]pyrazol-3-yl)pyridin-2-yl)-4,6-dihydropyrrolo[3,4-d]imidazole-5(1H)-carboxamide]: the IC50 came out at 1.7 nM.

Compound `Cc1cccc(-c2nn(CC3CC3)cc2-c2ccnc(-c3nc4c([nH]3)CN(S(C)(=O)=O)C4)c2)n1` [Compound 47, 2-[4-(1-(Cyclopropylmethyl)-3-(6-methylpyridin-2-yl)-1H-pyrazol-4-yl)pyridin-2-yl]-5-(methylsulfonyl)-1,4,5,6-tetrahydropyrrolo[3,4-d]imidazole] yielded an IC50 of 3.4 nM.

In turn, `Cc1cccc(-c2nn(Cc3ccncc3)cc2-c2ccnc(-c3nc4c([nH]3)CN(S(C)(=O)=O)C4)c2)n1` [Compound 55, 2-[4-(3-(6-Methylpyridin-2-yl)-1-(pyridin-4-ylmethyl)-1H-pyrazol-4-yl)pyridin-2-yl]-5-(methylsulfonyl)-1,4,5,6-tetrahydropyrrolo[3,4-d]imidazole] showed a half-maximal inhibitory concentration (IC50) of 5 nM.

As for `Cc1cccc(-c2nn3c(c2-c2ccnc(-c4nc5c([nH]4)CN(S(C)(=O)=O)C5)c2)CCC3)n1` [Compound 66, 2-(4-(2-(6-Methylpyridin-2-yl)-5,6-dihydro-4H-pyrrolo[1,2-b]pyrazol-3-yl)pyridin-2-yl)-5-(methylsulfonyl)-1,4,5,6-tetrahydropyrrolo[3,4-d]imidazole], half-maximal inhibition (IC50) was put at 4 nM.

On to `Cc1cccc(-c2nc3n(c2-c2ccnc(-c4nc5c([nH]4)CN(C(=O)c4cnn(C)c4)C5)c2)CCC3)n1` [Compound 11, (1-Methyl-1H-pyrazol-4-yl)(2-(4-(2-(6-methylpyridin-2-yl)-6,7-dihydro-5H-pyrrolo[1,2-a]imidazol-3-yl)pyridin-2-yl)-4,6-dihydropyrrolo[3,4-d]imidazol-5(1H)-yl)ketone], for which the 50% inhibitory concentration (IC50) stood at 11.6 nM.

In turn, `Cc1cccc(-c2nc3n(c2-c2ccnc(-c4nc5c([nH]4)CN(C(=O)CC#N)C5)c2)CCC3)n1` [Compound 64, 3-(2-(4-(2-(6-Methylpyridin-2-yl)-6,7-dihydro-5H-pyrrolo[1,2-a]imidazol-3-yl)pyridin-2-yl)-4,6-dihydropyrrolo[3,4-d]imidazol-5(1H)-yl)-3-oxopropanenitrile] registered an IC50 of 7.3 nM.

`Cc1cccc(-c2nn(C(C)C)cc2-c2ccnc(-c3nc4c([nH]3)CN(S(C)(=O)=O)C4)c2)n1` [Compound 46, 2-[4-(1-Isopropyl-3-(6-methylpyridin-2-yl)-1H-pyrazol-4-yl)pyridin-2-yl]-5-(methylsulfonyl)-1,4,5,6-tetrahydropyrrolo[3,4-d]imidazole] displayed an IC50 of 1.7 nM.

In turn, `Cc1cccc(-c2nc3n(c2-c2ccnc(-c4nc5c([nH]4)CNC5)c2)CCC3)n1` [Compound 2, 2-(4-(2-(6-methylpyridin-2-yl)-6,7-dihydro-5H-pyrrolo[1,2-a]imidazol-3-yl)pyridin-2-yl)-1,4,5,6-tetrahydropyrrolo[3,4-d]imidazole] had an IC50 of 23 nM.

`Cc1cccc(-c2nn(CC(C)O)cc2-c2ccnc(-c3nc4c([nH]3)CNC4)c2)n1` (stereo not drawn) [Compound 44, 3-(3-(6-Methylpyridin-2-yl)-4-(2-(1,4,5,6-tetrahydropyrrolo[3,4-d]imidazol-2-yl)pyridin-4-yl)-1H-pyrazol-1-yl)propan-2-ol]: the IC50 was 6.2 nM.

On to `Cc1cccc(-c2nn(Cc3ccc(F)cc3)cc2-c2ccnc(-c3nc4c([nH]3)CN(S(C)(=O)=O)C4)c2)n1` [Compound 50, 2-[4-(1-(4-Fluorobenzyl)-3-(6-methylpyridin-2-yl)-1H-pyrazol-4-yl)pyridin-2-yl]-5-(methylsulfonyl)-1,4,5,6-tetrahydropyrrolo[3,4-d]imidazole], for which the IC50 was 2.2 nM.

For `Cc1cccc(-c2nn(Cc3ccccc3F)cc2-c2ccnc(-c3nc4c([nH]3)CN(S(C)(=O)=O)C4)c2)n1` [Compound 51, 2-[4-(1-(2-Fluorobenzyl)-3-(6-methylpyridin-2-yl)-1H-pyrazol-4-yl)pyridin-2-yl]-5-(methylsulfonyl)-1,4,5,6-tetrahydropyrrolo[3,4-d]imidazole], the IC50 is 5.6 nM.

In turn, `Cc1cccc(-c2nn(Cc3ccccn3)cc2-c2ccnc(-c3nc4c([nH]3)CN(S(C)(=O)=O)C4)c2)n1` [Compound 53, 2-[4-(3-(6-Methylpyridin-2-yl)-1-(pyridin-2-ylmethyl)-1H-pyrazol-4-yl)pyridin-2-yl]-5-(methylsulfonyl)-1,4,5,6-tetrahydropyrrolo[3,4-d]imidazole] yielded an IC50 of 2.5 nM.

Regarding `CCS(=O)(=O)N1Cc2nc(-c3cc(-c4c(-c5cccc(C)n5)nn5c4CCC5)ccn3)[nH]c2C1` [Compound 68], the concentration for half-maximal inhibition (IC50) was 8.1 nM.

The compound `Cc1cccc(-c2nn(C)cc2-c2ccnc(-c3nc4c([nH]3)CN(C(=O)C3CC(O)C3)C4)c2)n1` (stereo not drawn) [Compound 42, (3-Hydroxycyclobutyl)(2-(4-(1-methyl-3-(6-methylpyridin-2-yl)-1H-pyrazol-4-yl)pyridin-2-yl)-4,6-dihydropyrrolo[3,4-d]imidazol-5(1H)-yl)ketone] gave a 50% inhibitory concentration (IC50) of 27 nM.

Compound `Cc1cccc(-c2nc3n(c2-c2ccnc(-c4nc5c([nH]4)CN(C(=O)N4CCOCC4)C5)c2)CCC3)n1` [Compound 14] gave an IC50 of 7.9 nM.

The compound `Cc1cccc(-c2nn3c(c2-c2ccnc(-c4nc5c([nH]4)CN(C(=O)C4CC(O)C4)C5)c2)CCC3)n1` (stereo not drawn) [Compound 65, (3-Hydroxycyclobutyl)(2-(4-(2-(6-methylpyridin-2-yl)-5,6-dihydro-4H-pyrrolo[1,2-b]pyrazol-3-yl)pyridin-2-yl)-4,6-dihydropyrrolo[3,4-d]imidazol-5(1H)-yl)ketone] displayed an IC50 of 0.7 nM.

For the compound `Cc1cccc(-c2nn(Cc3cccnc3)cc2-c2ccnc(-c3nc4c([nH]3)CN(S(C)(=O)=O)C4)c2)n1` [Compound 54, 2-[4-(3-(6-Methylpyridin-2-yl)-1-(pyridin-3-ylmethyl)-1H-pyrazol-4-yl)pyridin-2-yl]-5-(methylsulfonyl)-1,4,5,6-tetrahydropyrrolo[3,4-d]imidazole], the half-inhibitory concentration (IC50) came to 1.4 nM.

Turning to `Cc1cccc(-c2nn3c(c2-c2ccnc(-c4nc5c([nH]4)CN(C(=O)N(C)C)C5)c2)CCC3)n1` [Compound 67, N,N-Dimethyl-2-(4-(2-(6-methylpyridin-2-yl)-5,6-dihydro-4H-pyrrolo[1,2-b]pyrazol-3-yl)pyridin-2-yl)-4,6-dihydropyrrolo[3,4-d]imidazole-5(1H)-carboxamide], the 50% inhibitory concentration (IC50) came to 2 nM.

`Cc1cccc(-c2nc3n(c2-c2ccnc(-c4nc5c([nH]4)CN(C(=O)N4CCN(C)CC4)C5)c2)CCC3)n1` [Compound 4, (4-methylpiperazin-1-yl)(2-(4-(2-(6-methylpyridin-2-yl)-6,7-dihydro-5H-pyrrolo[1,2-a]imidazol-3-yl)pyridin-2-yl)-4,6-dihydropyrrolo[3,4-d]imidazol-5(1H)-yl)ketone] showed a half-maximal inhibitory concentration (IC50) of 3.8 nM.

Regarding `Cc1cccc(-c2nn3c(c2-c2ccnc(-c4nc5c([nH]4)CN(C(=O)C4CCN(C)CC4)C5)c2)CCC3)n1` [Compound 73, (1-Methylpiperidin-4-yl)(2-(4-(2-(6-methylpyridin-2-yl)-5,6-dihydro-4H-pyrrolo[1,2-b]pyrazol-3-yl)pyridin-2-yl)-4,6-dihydropyrrolo[3,4-d]imidazol-5(1H)-yl)ketone], 2.8 nM corresponded to half-maximal inhibition (IC50).

`Cc1cccc(-c2nc3n(c2-c2ccnc(-c4nc5c([nH]4)CN(C4CCN(C)CC4)C5)c2)CCC3)n1` [Compound 13, 5-(1-Methylpiperidin-4-yl)-2-(4-(2-(6-methylpyridin-2-yl)-6,7-dihydro-5H-pyrrolo[1,2-a]imidazol-3-yl)pyridin-2-yl)-1,4,5,6-tetrahydropyrrolo[3,4-d]imidazole] gave an IC50 of 11.9 nM.

Compound `Cc1cccc(-c2nc3n(c2-c2ccnc(-c4nc5c([nH]4)CN(S(C)(=O)=O)CC5)c2)CCC3)n1` [Compound 63, 2-(4-(2-(6-methylpyridin-2-yl)-6,7-dihydro-5H-pyrrolo[1,2-a]imidazol-3-yl)pyridin-2-yl)-5-(methylsulfonyl)-4,5,6,7-tetrahydro-3H-imidazolo[4,5-c]pyridine] registered an IC50 of 1.6 nM.

`CCn1cc(-c2ccnc(-c3nc4c([nH]3)CN(C(=O)N(C)C)C4)c2)c(-c2cccc(C)n2)n1` [Compound 60, 2-(4-(1-Ethyl-3-(6-methylpyridin-2-yl)-1H-pyrazol-4-yl)pyridin-2-yl)-N,N-dimethyl-4,6-dihydropyrrolo[3,4-d]imidazol-5(1H)-carboxamide]: the IC50 was 1.8 nM.

For `Cc1cccc(-c2nn(C)cc2-c2ccnc(-c3nc4c([nH]3)CN(C(=O)N(C)C)C4)c2)n1` [Compound 58, N,N-Dimethyl-2-(4-(1-methyl-3-(6-methylpyridin-2-yl)-1H-pyrazol-4-yl)pyridin-2-yl)-4,6-dihydropyrrolo[3,4-d]imidazol-5(1H)-carboxamide], the half-maximal inhibitory concentration (IC50) amounted to 1.8 nM.
